Values quoted from earlier work as cited in US8591947B2, “Dual controlled release dosage form” (Osmotica Kereskedelmi és Szolgáltató KFT, priority 2001, dated 2013).
Counter-ions that a name gives are not always drawn.

| SMILES | Solubility of component in water (U.S.P. term) |
| --- | --- |
| CC(=O)Nc1ccc(O)cc1 [acetaminophen] | very slightly soluble |
| Nc1nc2c(ncn2COCCO)c(=O)[nH]1 [acyclovir] | slightly soluble |
| CC(C)(C)NCC(O)c1ccc(O)c(CO)c1 (centres unmarked) [albuterol] | sparingly soluble |
| Oc1ncnc2[nH]ncc12 [allopurinol] | very slightly soluble |
| CN(C)CCC=C1c2ccccc2CCc2ccccc21 [amitriptyline] | freely soluble |
| CCOC(=O)C1=C(COCCN)NC(C)=C(C(=O)OC)C1c1ccccc1Cl (centres unmarked) [amlodipine besylate] | slightly soluble |
| CC(=O)Oc1ccccc1C(=O)O [aspirin] | slightly soluble |
| CC[C@H]1OC(=O)[C@H](C)[C@@H](O[C@H]2C[C@@](C)(OC)[C@@H](O)[C@H](C)O2)[C@H](C)[C@@H](O[C@@H]2O[C@H](C)C[C@H](N(C)C)[C@H]2O)[C@](C)(O)C[C@@H](C)CN(C)[C@H](C)[C@@H](O)[C@]1(C)O [azithromycin dihydrate] | practically insoluble |
| CCOC(=O)[C@H](CCc1ccccc1)N[C@H]1CCc2ccccc2N(CC(=O)O)C1=O [benazepril] | soluble |
| CC(NC(C)(C)C)C(=O)c1cccc(Cl)c1 (centres unmarked) [bupropion HCl] | soluble |
| O=C1CC2(CCCC2)CC(=O)N1CCCCN1CCN(c2ncccn2)CC1 [buspirone HCl] | freely soluble |
| C[C@H](CS)C(=O)N1CCC[C@H]1C(=O)O [captopril] | freely soluble |
| NC(=O)N1c2ccccc2C=Cc2ccccc21 [carbamazepine] | practically insoluble |
| COc1ccccc1OCCNCC(O)COc1cccc2[nH]c3ccccc3c12 (centres unmarked) [carvedilol] | practically insoluble |
| Cc1ccc(-c2cc(C(F)(F)F)nn2-c2ccc(S(N)(=O)=O)cc2)cc1 [celecoxib] | practically insoluble |
| CN/C(=N/CCSCc1nc[nH]c1C)NC#N [cimetidine] | sparingly soluble |
| COc1cc(N)c(Cl)cc1C(=O)NC1CCN(CCCOc2ccc(F)cc2)CC1OC (centres unmarked) [cisapride monohydrate] | practically insoluble |
| CN(C)CCCC1(c2ccc(F)cc2)OCc2cc(C#N)ccc21 (centres unmarked) [citalopram] | sparingly soluble |
| Clc1cccc(Cl)c1N=C1NCCN1 [clonidine HCl] | soluble |
| COC(=O)[C@H](c1ccccc1Cl)N1CCc2sccc2C1 [clopidogrel bisulfate] | practically insoluble |
| CN(C)CCC=C1c2ccccc2C=Cc2ccccc21 [cyclobenzaprine HCl] | freely soluble |
| COc1ccc([C@@H]2Sc3ccccc3N(CCN(C)C)C(=O)[C@@H]2OC(C)=O)cc1 [diltiazem HCl] | freely soluble |
| COc1cc2nc(N3CCN(C(=O)C4COc5ccccc5O4)CC3)nc(N)c2cc1OC (centres unmarked) [doxazosin mesylate] | slightly soluble |

| SMILES | Solubility of component in water (U.S.P. term) |
| --- | --- |
| C[C@H]1c2cccc(O)c2C(=O)C2=C(O)[C@]3(O)C(=O)C(C(N)=O)=C(O)[C@@H](N(C)C)[C@@H]3[C@@H](O)[C@@H]21 [doxycycline hydrate] | soluble |
| CCOC(=O)[C@H](CCc1ccccc1)N[C@@H](C)C(=O)N1CCC[C@H]1C(=O)O [enalapril maleate] | sparingly soluble |
| CCOC(=O)C1=C(C)NC(C)=C(C(=O)OC)C1c1cccc(Cl)c1Cl (centres unmarked) [felodipine] | practically insoluble |
| OC(Cn1cncn1)(Cn1cncn1)c1ccc(F)cc1F [fluconazole] | slightly soluble |
| CCC(=O)O[C@]1(C(=O)SCF)[C@H](C)C[C@H]2[C@@H]3C[C@H](F)C4=CC(=O)C=C[C@]4(C)[C@@]3(F)[C@@H](O)C[C@@]21C [fluticasone propionate] | practically insoluble |
| CCC(=O)O[C@@H](O[P@](=O)(CCCCc1ccccc1)CC(=O)N1C[C@H](C2CCCCC2)C[C@H]1C(=O)O)C(C)C [fosinopril sodium] | soluble |
| NCC1(CC(=O)O)CCCCC1 [gabapentin] | freely soluble |
| COc1ccc2c3c1O[C@H]1C[C@@H](O)C=C[C@@]31CCN(C)C2 [galantamine HBr] | sparingly soluble |
| COc1ccc(Cl)cc1C(=O)NCCc1ccc(S(=O)(=O)NC(=O)NC2CCCCC2)cc1 [glyburide] | practically insoluble |
| COc1ccc2c3c1O[C@H]1C(=O)CC[C@H]4[C@@H](C2)N(C)CC[C@]314.O=C(O)C(O)C(O)C(=O)O [hydrocodone bitartrate] | soluble |
| OCCOCCN1CCN(C(c2ccccc2)c2ccc(Cl)cc2)CC1 (centres unmarked) [hydroxyzine] | very soluble |
| CC(C)Cc1ccc(C(C)C(=O)O)cc1 (centres unmarked) [ibuprofen] | very slightly soluble |
| O=[N+]([O-])O[C@@H]1CO[C@H]2[C@@H]1OC[C@@H]2O [isosorbide mononitrate] | freely soluble |
| Cc1c(OCC(F)(F)F)ccnc1C[S+]([O-])c1nc2ccccc2[nH]1 (centres unmarked) [lansoprazole] | practically insoluble |
| CC[C@@H](C(N)=O)N1CCCC1=O [levetiracetam] | very soluble |
| NCCCC[C@H](N[C@@H](CCc1ccccc1)C(=O)O)C(=O)N1CCC[C@H]1C(=O)O [lisinopril] | soluble |
| CCCCc1nc(Cl)c(CO)n1Cc1ccc(-c2ccccc2-c2nn[nH]n2)cc1 [losartan potassium] | freely soluble |
| Cc1cccc(CN2CCN(C(c3ccccc3)c3ccc(Cl)cc3)CC2)c1 (centres unmarked) [meclizine HCl] | soluble |
| CC12CC3CC(C)(C1)CC(N)(C3)C2 [memantine HCl] | slightly soluble |
| COCCc1ccc(OCC(O)CNC(C)C)cc1 (centres unmarked) [metoprolol tartrate] | very soluble |
| Cc1ncc([N+](=O)[O-])n1CCO [metronidazole] | sparingly soluble |
| C[C@@H]1C[C@H]2[C@@H]3CCC4=CC(=O)C=C[C@]4(C)[C@@]3(Cl)[C@@H](O)C[C@]2(C)[C@@]1(OC(=O)c1ccco1)C(=O)CCl [mometasone furoate] | practically insoluble |
| COC(=O)C1=C(C)NC(C)=C(C(=O)OCC(C)C)C1c1ccccc1[N+](=O)[O-] (centres unmarked) [nisoldipine] | practically insoluble |

| SMILES | Solubility of component in water (U.S.P. term) |
| --- | --- |
| Cc1cc2c(s1)Nc1ccccc1N=C2N1CCN(C)CC1 [olanzapine] | practically insoluble |
| COc1ccc2[nH]c([S+]([O-])Cc3ncc(C)c(OC)c3C)nc2c1 (centres unmarked) [omeprazole] | very slightly soluble |
| COc1ccc2c3c1O[C@H]1C(=O)CC[C@@]4(O)[C@@H](C2)N(C)CC[C@]314 [oxycodone] | soluble |
| Fc1ccc([C@@H]2CCNC[C@H]2COc2ccc3c(c2)OCO3)cc1 [paroxetine HCl] | slightly soluble |
| O=C1N=C([O-])NC1(c1ccccc1)c1ccccc1.[Na+] [phenyloin sodium] | soluble |
| CC(C)NCC(O)COc1cccc2[nH]ccc12 (centres unmarked) [pindolol] | practically insoluble |
| CCc1ccc(CCOc2ccc(CC3SC(=O)NC3=O)cc2)nc1 (centres unmarked) [pioglitazone HCl] | practically insoluble |
| CC[C@H](C)C(=O)O[C@H]1C[C@H](O)C=C2C=C[C@H](C)[C@H](CC[C@@H](O)C[C@@H](O)CC(=O)O)[C@H]21 [pravastatin sodium] | soluble |
| C[C@]12C=CC(=O)C=C1CC[C@@H]1[C@@H]2C(=O)C[C@@]2(C)[C@H]1CC[C@]2(O)C(=O)CO [prednisone] | very slightly soluble |
| CC(CN1c2ccccc2Sc2ccccc21)N(C)C (centres unmarked) [promethazine HCl] | soluble |
| CCC(=O)O[C@](Cc1ccccc1)(c1ccccc1)[C@H](C)CN(C)C.Cl [propoxiphene HCl] | freely soluble |
| CC(C)NCC(O)COc1cccc2ccccc12 (centres unmarked) [propranolol HCl] | soluble |
| CCOC(=O)[C@H](CCc1ccccc1)N[C@@H](C)C(=O)N1Cc2ccccc2C[C@H]1C(=O)O [quinapril] | freely soluble |
| COCCCOc1ccnc(C[S+]([O-])c2nc3ccccc3[nH]2)c1C (centres unmarked) [rabeprazole sodium] | very soluble |
| Cl.O=C(c1ccc(OCCN2CCCCC2)cc1)c1c(-c2ccc(O)cc2)sc2cc(O)ccc12 [ralozifene HCL] | very slightly soluble |
| CCOC(=O)[C@H](CCc1ccccc1)N[C@@H](C)C(=O)N1[C@H](C(=O)O)C[C@@H]2CCC[C@@H]21 [ramipril] | slightly soluble |
| CNC(=C[N+](=O)[O-])NCCSCc1ccc(CN(C)C)o1 [ranitidine HCl] | very soluble |
| Cc1nc2n(c(=O)c1CCN1CCC(c3noc4cc(F)ccc34)CC1)CCCC2 [risperidone] | practically insoluble |
| CCN(C)C(=O)Oc1cccc([C@H](C)N(C)C)c1 [rivastigmine hydrogen tartrate] | very soluble |
| CS(=O)(=O)c1ccc(C2=C(c3ccccc3)C(=O)OC2)cc1 [rofecoxib] | practically insoluble |
| CN(CCOc1ccc(CC2SC(=O)NC2=O)cc1)c1ccccn1 (centres unmarked) [rosiglitazone maleate] | soluble |
| OCc1cc(C(O)CNCCCCCCOCCCCc2ccccc2)ccc1O (centres unmarked) [salmeterol] | sparingly soluble |
